According to patent publication US6436448B1, “Method for the treatment of lymphedema using guaifenesin” (Sky BioHealth Solutions, Inc., priority 2001, dated 2002):

Key:
[1] = Inventor's clinical observation of patients with lymphedema / fluid accumulation treated orally; type: in vivo
Excerpt: The inventor disagrees with the basic assumption and hypothesis on the inner working of guaifenesin. The inventor believes that guaifenesin's activity is its ability to break down undigested protein, and antigen-antibody complexed protein within the tissues and lymphatic nodes and vessels to reduce fluid accumulation and therefore reduce lymphedema. Guaifenesin is an expectorate and it thins out proteinaceous secretions from our lungs by directly and/or indirectly through stimulating macrophages to breaking the proteins into its amino acids components. The inventor believes that guaifenesin break down the proteins within the blood stream, tissues, and the lymphatic system. By maintaining a high level of guaifenesin within the blood stream, the “foreign” proteins within the tissue, antigen-antibody protein complexes within the lymph nodes will be broken down allowing the broken down amino acid particles to diffuse across the tissue into the lymphatic drainage. With this fluid switch from the lymphatic to the systemic circulation diuresis ensues without affecting the potassium metabolism within the kidney. The inventor has also observed lymphedema that occurs in non-fibromyalgia patients that responds well to guaifenesin therapy resulting in reduction of the swelling. […] These observations confirm the hypothesis that guaifenesin works on the “foreign” protein or antigen-antibodies protein complexes within the tissues and lymphatic system. With different size “foreign” protein and antigen-antibody protein complexes, guaifenesin's action on these proteins in various part of the body will proceed with different rate resulting in different rate of swelling reduction in different part of the bodies. Many of these patients, however, are diagnosed by a physician to have a cardiogenic etiology of edema and are typically treated with diuretics of various types. Cardiogenic edema should respond to a diuretic within […]. The inventor has observed patients being on diuretics for as long as a year with no results on the lymphedema. In testing this hypothesis, the inventor has used guaifenesin on over several hundred patients in varying dosages. […] Guaifenesin is also available in sustained-release version. The long-acting version is typically available at 600 mg and is designed to be taken two or three times a day. […] Other combinations of various dosage for ms may be used with various patients to improve results. […] While the inventor has only administered guaifenesin to patients orally, guaifenesin and its analogs can be formulated using known methods to prepare pharmaceutically useful compositions by combining guaifenesin with a pharmaceutically acceptable carriers and adapted to be administered by injection, transdermally, transmucosally or by any other means of drug delivery vehicle. Guafenesin may also be administered to a patient in a patch form or in a cream, ointment, or in a nasal or lung spray, or in a suppository.

[2] = herbal medicines, background statement; cited from earlier work

Row | SMILES | results with combination of short acting and long acting versions ([1]; combination of short acting and long acting versions) | painful and swollen lymph nodes ([1]; fibromyalgia patients on guaifenesin) | results with long-acting (sustained-release) version alone ([1]; long-acting version, typically 600 mg two or three times a day) | response of lymphedema (reduction of the swelling) ([1]; non-fibromyalgia patients, guaifenesin therapy) | accumulated fluid ([1]; over several hundred patients, oral, about 600 mg to about 4000 mg per day) | swelling of lymphedema [2]
1 | COc1ccccc1OCC(O)CO (stereo not drawn) [guaifenesin] | improves the results | reduction of the painful and swollen lymph nodes | may not work well in some patients | responds well | reduction of accumulated fluid | –
2 | O=c1ccc2ccccc2o1 [coumarin] | – | – | – | – | – | decrease some of the swelling associated with lymphedema
